Test results as given in ChEMBL document CHEMBL3997824, “Synthesis and biological evaluation of potential inhibitors of the cysteine proteases cruzain and rhodesain designed by molecular simplification” (Bioorg Med Chem, 2017).
pIC50, pKi: −log10 of the molar value. Calls of active or inactive are those of the source. The calls are words filed in the database; no cut-off is given here.

Experiments:
[1] = system: Trypanosoma cruzi; test: Antitrypanosomal activity against Trypanosoma cruzi Tulahuen trypomastigote forms infected in mouse L929 cells after 96 hrs by chlorophenol red-beta-D-galactopyranoside dye based assay; assay type: functional, cell-based; conditions: L929, 96 h
[2] = system: Trypanosoma brucei; test: Inhibition of recombinant Trypanosoma brucei rhodesain at 100 uM using Z-phe-Arg-amidomethylcoumarin as substrate by fluorometric method relative to control
[3] = Cytotoxicity against mouse L929 cells after 96 hrs by alamar blue assay; assay type: cell-based
[4] = Selectivity index, ratio of CC50 for mouse L929 cells to IC50 for Trypanosoma cruzi Tulahuen trypomastigote forms infected in mouse L929 cells; assay type: toxicity, cell-based; conditions: read-out: Ratio CC50/IC50
[5] = biological target: Cruzipain (Trypanosoma cruzi) (UniProt P25779); test: Inhibition of recombinant Trypanosoma cruzi cruzain at 100 uM using Z-phe-Arg-amidomethylcoumarin as substrate by fluorometric method relative to control
Chain of Cruzipain (Trypanosoma cruzi) (P25779 123-467 limits assumed): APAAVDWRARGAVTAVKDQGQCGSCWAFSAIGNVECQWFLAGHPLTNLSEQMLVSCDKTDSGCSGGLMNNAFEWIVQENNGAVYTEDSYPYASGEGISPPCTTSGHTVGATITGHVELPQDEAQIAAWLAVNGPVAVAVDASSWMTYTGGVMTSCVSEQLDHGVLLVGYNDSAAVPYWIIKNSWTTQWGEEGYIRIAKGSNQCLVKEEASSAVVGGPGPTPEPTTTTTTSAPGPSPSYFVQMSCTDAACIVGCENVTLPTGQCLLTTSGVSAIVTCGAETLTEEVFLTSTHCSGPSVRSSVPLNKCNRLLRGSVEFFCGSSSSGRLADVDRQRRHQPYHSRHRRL

[6] = biological target: T1, Cruzipain (Trypanosoma cruzi, UniProt P25779); test: Inhibition of recombinant Trypanosoma cruzi cruzain using Z-phe-Arg-amidomethylcoumarin as substrate by fluorometric method
T1 sequence (P25779 whole entry): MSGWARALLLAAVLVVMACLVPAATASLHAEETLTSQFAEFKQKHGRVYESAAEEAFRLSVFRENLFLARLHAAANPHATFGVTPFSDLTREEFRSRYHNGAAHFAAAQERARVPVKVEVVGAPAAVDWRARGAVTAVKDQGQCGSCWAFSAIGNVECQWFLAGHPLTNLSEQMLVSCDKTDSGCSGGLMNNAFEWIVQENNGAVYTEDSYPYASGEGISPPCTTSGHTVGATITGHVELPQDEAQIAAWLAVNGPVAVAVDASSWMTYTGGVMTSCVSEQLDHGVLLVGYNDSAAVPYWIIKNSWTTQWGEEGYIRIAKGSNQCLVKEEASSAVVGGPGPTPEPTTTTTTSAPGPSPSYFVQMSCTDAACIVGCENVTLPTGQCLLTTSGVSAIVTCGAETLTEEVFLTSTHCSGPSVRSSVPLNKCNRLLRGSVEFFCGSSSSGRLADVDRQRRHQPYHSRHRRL

[7] = biological target: Cathepsin S (Homo sapiens) (UniProt P25774); test: Inhibition of recombinant human cathepsin S at 100 uM using cbz-val-val-arg-7-amino-4-methylcoumarin as substrate measured for 15 mins by fluorescence assay relative to control
Chain of Cathepsin S (Homo sapiens) (P25774 115-331 limits assumed): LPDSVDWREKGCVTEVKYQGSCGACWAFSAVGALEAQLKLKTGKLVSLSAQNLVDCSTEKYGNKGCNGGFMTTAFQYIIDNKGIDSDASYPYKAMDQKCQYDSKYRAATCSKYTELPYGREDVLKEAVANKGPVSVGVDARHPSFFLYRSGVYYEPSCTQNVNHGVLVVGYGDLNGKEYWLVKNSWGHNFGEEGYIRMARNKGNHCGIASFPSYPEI

[8] = Inhibition of recombinant Trypanosoma brucei rhodesain using Z-phe-Arg-amidomethylcoumarin as substrate by fluorometric method
[9] = biological target: Cathepsin S (Homo sapiens) (UniProt P25774); test: Inhibition of recombinant human cathepsin S at 100 uM using cbz-val-val-arg-7-amino-4-methylcoumarin as substrate preincubated for 5 mins followed by substrate addition measured for 15 mins by fluorescence assay relative to control
[10] = biological target: Cathepsin B (Rattus norvegicus) (UniProt P00787); test: Inhibition of rat cathepsin B at 100 uM using cbz-phe-Arg-amidomethylcoumarin as substrate measured for 15 mins by fluorescence assay relative to control
Chain of Cathepsin B (Rattus norvegicus) (P00787 80-333 limits assumed): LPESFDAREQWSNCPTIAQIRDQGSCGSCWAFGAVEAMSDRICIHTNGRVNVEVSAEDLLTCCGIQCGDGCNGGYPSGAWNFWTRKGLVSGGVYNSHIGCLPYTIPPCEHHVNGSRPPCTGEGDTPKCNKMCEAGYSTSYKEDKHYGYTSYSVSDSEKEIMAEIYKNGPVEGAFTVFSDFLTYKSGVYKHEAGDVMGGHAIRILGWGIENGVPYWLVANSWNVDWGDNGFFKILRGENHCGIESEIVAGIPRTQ

[11] = biological target: Cathepsin B (Rattus norvegicus) (UniProt P00787); test: Inhibition of rat cathepsin B at 100 uM using cbz-phe-Arg-amidomethylcoumarin as substrate preincubated for 5 mins followed by substrate addition measured for 15 mins by fluorescence assay relative to control
[12] = system: Trypanosoma cruzi; test: Antitrypanosomal activity against Trypanosoma cruzi Tulahuen trypomastigote forms infected in mouse L929 cells up to 250 uM after 96 hrs by chlorophenol red-beta-D-galactopyranoside dye based assay; assay type: functional, cell-based
[13] = system: Trypanosoma brucei; test: Inhibition of recombinant Trypanosoma brucei rhodesain at 100 uM in AcOH/AcONA buffer using Z-phe-Arg-amidomethylcoumarin as substrate by fluorometric method relative to control
[14] = biological target: Cruzipain (Trypanosoma cruzi) (UniProt P25779); test: Inhibition of recombinant Trypanosoma cruzi cruzain at 100 uM in AcOH/AcONA buffer using Z-phe-Arg-amidomethylcoumarin as substrate by fluorometric method relative to control
[15] = Inhibition of recombinant Trypanosoma brucei rhodesain in AcOH/AcONA buffer using Z-phe-Arg-amidomethylcoumarin as substrate by fluorometric method
[16] = biological target: T1, Cruzipain; test: Competitive inhibition of recombinant Trypanosoma cruzi cruzain in presence of varying levels of Z-phe-Arg-amidomethylcoumarin substrate by Lineweaver-Burk plot analysis
[17] = biological target: Cathepsin S (Homo sapiens) (UniProt P25774); test: Inhibition of recombinant human cathepsin S at 1 uM using cbz-val-val-arg-7-amino-4-methylcoumarin as substrate measured for 15 mins by fluorescence assay relative to control
[18] = biological target: Cathepsin B (Rattus norvegicus) (UniProt P00787); test: Inhibition of rat cathepsin B at 1 uM using cbz-phe-Arg-amidomethylcoumarin as substrate measured for 15 mins by fluorescence assay relative to control
[19] = biological target: Cathepsin S (Homo sapiens) (UniProt P25774); test: Inhibition of recombinant human cathepsin S at 1 uM using cbz-val-val-arg-7-amino-4-methylcoumarin as substrate preincubated for 5 mins followed by substrate addition measured for 15 mins by fluorescence assay relative to control
[20] = biological target: Cathepsin B (Rattus norvegicus) (UniProt P00787); test: Inhibition of rat cathepsin B at 1 uM using cbz-phe-Arg-amidomethylcoumarin as substrate preincubated for 5 mins followed by substrate addition measured for 15 mins by fluorescence assay relative to control

SMILES | pIC50 [1] | inhibition [2] | CC50 at 96 h [3] | selectivity ratio [4] | inhibition [5] | Activity [12] | also measured
CCCNc1ccnc2cc(Cl)ccc12 | 3.90 | 49% | 283 µM | 2.3 | 53% | – | –
Clc1ccc2c(NCc3ccccc3)ccnc2c1 | 4.43 | 71% | 46.5 µM | 1.2 | 65% | – | pIC50 [6]: 4.36; inhibition [7]: 17%; pIC50 [8]: 4.47; inhibition [9]: 12%; inhibition [10]: 2%; inhibition [11]: 9%
c1ccc2[nH]c(CNC3CCCCC3)cc2c1 | – | 8% | – | – | 6% | inactive | –
c1ccc2c(c1)CCN(c1ccncn1)C2 | 5.51 | 20% | 400 µM | 128 | 15% | – | –
CN1CCN(Cc2ccc[nH]2)CC1 | – | 32.1% | – | – | 10.9% | inactive | –
OCCN1CCN(c2ccnc3cc(Cl)ccc23)CC1 | – | – | – | – | – | inactive | inhibition [13]: 53%; inhibition [14]: 42.6%
Clc1ccc2[nH]c(CNCc3ccccc3)cc2c1 | 4.60 | 5% | 31 µM | 1.2 | 4% | – | –
Cc1ccc(NC(=O)CNCCCN2CCOCC2)cc1 | – | 13.1% | – | – | 3.5% | inactive | –
NCCCNc1ccnc2cc(Cl)ccc12 | – | – | – | – | – | inactive | inhibition [13]: 53%; inhibition [14]: 39%
O=C(CN1CCc2ccccc2C1)Nc1ccc(Cl)cc1 | 4.19 | 20.5% | < 125 µM | < 1.9 | 18.2% | – | –
c1c[nH]c(CN2CCOCC2)c1 | – | 66.7% | – | – | 23.6% | inactive | pIC50 [8]: 4.26
NCCNc1ccnc2cc(Cl)ccc12 | 4.11 | – | < 194 µM | < 2.5 | – | – | inhibition [13]: 62%; pIC50 [15]: 3.90; inhibition [14]: 44%
c1cc(NCCCN2CCOCC2)ncn1 | – | 5% | – | – | 1% | inactive | –
c1ccc(CNCc2cc3ccccc3[nH]2)cc1 | – | 8% | – | – | 9% | inactive | –
c1c[nH]c(CN2CCc3ccccc3C2)c1 | – | 49.1% | – | – | 3.2% | inactive | –
Cc1ccc(NC(=O)CN2CCN(C)CC2)cc1 | – | 15.5% | – | – | 0% | inactive | –
Clc1ccc2[nH]c3c(NCCCN4CCOCC4)ncnc3c2c1 | – | – | – | – | – | – | pIC50 [6]: 4.82
Clc1ccc2c(NCCCN3CCOCC3)ccnc2c1 | 4.17 | 51% | 123 µM | 1.8 | 88% | – | pIC50 [6]: 4.82; inhibition [7]: 13%; inhibition [9]: 10%; inhibition [10]: 6%; inhibition [11]: 8%; pKi [16]: 4.92
O=C(CNCCCN1CCOCC1)Nc1ccc(Cl)cc1 | – | 21% | – | – | 16.5% | inactive | –

SMILES | pIC50 [1] | inhibition [2] | CC50 at 96 h [3] | selectivity ratio [4] | inhibition [5] | Activity [12] | also measured
O=C(CNCCCN1CCOCC1)Nc1ccccc1 | – | 7.4% | – | – | 2.9% | inactive | –
OCCCNc1ccnc2cc(Cl)ccc12 | – | 63% | – | – | 67% | inactive | pIC50 [6]: 4.55; inhibition [7]: 14%; pIC50 [8]: 4.14; inhibition [9]: 4%; inhibition [10]: 8%; inhibition [11]: 5%
O=C(CNc1ccnc2cc(Cl)ccc12)N1CCOCC1 | – | 61% | – | – | 55% | inactive | pIC50 [8]: 4.32
CC(C)C[C@H](NC(=O)[C@@H]1O[C@H]1C(=O)O)C(=O)NCCCCN=C(N)N | – | – | – | – | – | – | inhibition [17]: 100%; inhibition [18]: 99%; inhibition [19]: 100%; inhibition [20]: 100%
O=C(Cn1ccnc1[N+](=O)[O-])NCc1ccccc1 [BENZNIDAZOLE] | 5.42 | – | – | – | – | – | –
CN1CCN(CC(=O)Nc2ccc(Cl)cc2)CC1 | – | 22.6% | – | – | 28.5% | inactive | –
O=C(CN1CCc2ccccc2C1)Nc1ccccc1 | 3.61 | 19.1% | 375 µM | 1.5 | 7.7% | – | –
Clc1ccc2[nH]c(CNC3CCCCC3)cc2c1 | 4.97 | 4% | 12.5 µM | 1.2 | 8% | – | –
Clc1ccc2c(NCCN3CCCCC3)ccnc2c1 | 4.24 | 56% | 64.5 µM | 1.1 | 43% | – | –
c1c[nH]c(CNCCCN2CCOCC2)c1 | – | 15.1% | – | – | 0% | inactive | –
CN1CCN(CC(=O)Nc2ccccc2)CC1 | – | 7.4% | – | – | 38.6% | inactive | –
CN1CCN(c2ccncn2)CC1 | – | 13% | – | – | 5% | inactive | –
Clc1ccc2c(NCCN3CCOCC3)ccnc2c1 | – | 61% | – | – | 56% | inactive | pIC50 [6]: 4.39; pIC50 [8]: 4.21
Cc1ccc(NC(=O)CN2CCc3ccccc3C2)cc1 | 4.08 | 16.7% | 125 µM | 1.5 | 15.3% | – | –
OCCNc1ccnc2cc(Cl)ccc12 | – | 61% | – | – | 60% | inactive | pIC50 [6]: 4.21; pIC50 [8]: 4.24
c1ccc2[nH]c(CNCCCN3CCOCC3)cc2c1 | – | 7% | – | – | 4% | inactive | –
Clc1ccc2c(NCCCN3CCCCC3)ccnc2c1 | 4.42 | 61% | 61.5 µM | 1.6 | 53% | – | –
Clc1ccc2[nH]c(CNCCCN3CCOCC3)cc2c1 | 4.41 | 1% | 75 µM | 1.9 | 15% | – | –
